From patent publication US20100048564A1, “FUSED BICYCLIC HETEROARYL DERIVATIVE” (DAIICHI SANKYO COMPANY, LIMITED, priority 2007, published 2010)

Columns and labels:
Rat white adipocytes = assay: Adipocyte differentiation inhibition test (Test Example 3); format: cell-based; conditions: with Compound A 3.3 nM, 5 days, Oil Red O ABS550, N.D. denotes not calculable; for IC50: Adipocyte, 120 h
Method: Rat white adipocytes included in a white adipocyte culture kit purchased from Primary Cell Co., Ltd. were subjected to this test. A medium included in the white adipocyte culture kit purchased from Primary Cell Co., Ltd. was used as a growth medium or a differentiation-inducing medium.
The whole of the transportation medium was extracted immediately after the arrival of the purchased cells. The growth medium was added in an amount of 5 ml(/25 cm^2-flask), and the cells were cultured for one day. Thereafter, a cell suspension (83,000 cells/mL) was prepared using the growth medium. The cell suspension was dispensed to a 96-well type-I collagen-coated microplate (Becton, Dickinson and Company) at 5,000 to 6,000 cells/well (60 μL/well). A well to which only the growth medium not containing cells was dispensed (blank well) was provided as a blank group in each plate.
3) For the negative control group, DMSO diluted 20-fold with the differentiation-inducing medium was added at 3 μL/well (final DMSO concentration: 0.1% (v/v)) to the wells into which the cells were seeded.
After culturing for five days, the whole of the differentiation-inducing medium was removed from each well, and 60 μL of a 10% (v/v) formaldehyde solution (fixative solution) was added to each well. The cells were incubated at room temperature for 20 minutes. The whole of the fixative solution was removed and 60 μL of a 0.2% (v/v) Triton X-100 solution (Sigma) was dispensed to each well. The cells were incubated at room temperature for five minutes. The whole of the Triton X-100 solution was removed. A fat stain was prepared by dissolving Oil Red 0 (Sigma) in a 60% (v/v) isopropanol solution at 0.3% (w/v), and 60 μL of the fat stain was dispensed to each well. The cells were incubated at room temperature for 10 minutes. The whole of the fat stain was removed, and then 60 μL of a 60% (v/v) isopropanol solution was dispensed and removed. Thus, each well was washed twice. Thereafter, DMSO was added to each well at 100 μL per well, followed by stirring at room temperature for five minutes. […] The degree of adipocyte differentiation (%) of the test compound-added group was calculated assuming that the measured ABS550 of the positive control group was 100% and the measured ABS550 of the negative control group was 0.
N.D. denotes not calculable.

| melting point [°C] | IC50 (Rat white adipocytes) [nM] | Compound | Imax (%) (Rat white adipocytes) |
| --- | --- | --- | --- |
| 235 to 239 | 12 | Cc1cc(Oc2ccc3nc(COc4cccc(C(=O)O)c4)n(C)c3c2)cc(C)c1N.Cl.Cl [Example 2, 3-{[6-(4-Amino-3,5-dimethylphenoxy)-1-methyl-1H-benzimidazol-2-yl]methoxy}benzoic acid dihydrochloride] | −33 |
| – | 53 | Cl.Cn1c(COc2cccc(C(=O)O)c2)nc2ccc(Oc3cccc(F)c3)cc21 [Example 8, 3-{[6-(3-Fluorophenoxy)-1-methyl-1H-benzimidazol-2-yl]methoxy}benzoic acid hydrochloride] | −29 |
| – | 45 | Cl.Cn1c(COc2cccc(C(=O)O)c2)nc2ccc(Oc3ccc(Cl)c(F)c3)cc21 [Example 10, 3-{[6-(4-Chloro-3-fluorophenoxy)-1-methyl-1H-benzimidazol-2-yl]methoxy}benzoic acid hydrochloride] | −29 |
